“Also recorded” adds a separate entry of the source.
Legend:
[1] = system: whole-cell swelling-activated currents in adult rat astrocytes; experiment: Whole-cell (Nystatin perforated patch) currents in adult rat astrocytes, isotonic and hypotonic swelling; type: cell-based; conditions: for estimated reduction in swelling-activated current: relative to mean before and after controls
Description: It is considered that part of the swelling activated currents are attributable to SACs. To illustrate this embodiment, adult rat astrocytes were cultured as described above. Whole cell current was measured by the Nystatin perforated patch. Bath saline was the same as in Example 2. Pipette saline consisted of: KCl 80 mM, K2SO4 30 mM, NaCl 10 mM, MgSO4 3 mM, CaCl20.13 mM, EGTA 0.23 mM and Hepes 10 mM, pH 7.3. Nystatin was dissolved in pipette saline to a final concentration of […]. After patch formation, access resistance was allowed to drop to ˜15 MW (uncompensated), after which the series resistance compensation was set at ˜65%, and prediction was set to ˜75%. Whole cell capacitance measurements ranged from ˜25–50 pF. Whole cell currents were monitored by either a voltage step protocol shown in FIG. 7, or by 600 ms voltage ramps. During hypotonic swelling the cell was perfused initially with isotonic saline (bath saline with 160 mM mannitol replacing 80 mM NaCl) before switching to hypotonic saline (isotonic saline minus 140 mM mannitol). The BPS-8 perfusion system was used to rapidly (<200 ms) change the bathing solution. Peak currents were measured at 3–5 ms into voltage steps.

[2] = system: swelling-activated currents in ventricular myocytes; experiment: Perforated patch whole-cell swelling-activated currents in ventricular myocytes from rabbits with aortic regurgitation-induced CHF; type: cell-based, rabbit; conditions: 0.4 μM
Description: Ventricular myocytes were freshly isolated from New Zealand white rabbits with aortic regurgitation induced congestive heart failure using a collagenase-pronase dispersion method (Clemo et al., 1997, supra). Cells were stored in a modified Kraft-Bruhe solution (KOH 132 mM, glutamic acid 120 mM, KCl 2.5 mM, KH2PO4 10 mM, MgSO4 1.8 mM, K2EGTA 0.5 mM, glucose 11 mM, taurine 10 mM, Hepes 10 mM, pH 7.2). Myocytes were used within 6 h of harvesting and only quiescent cells with no evidence of membrane blebbing were selected for study.
Swelling activated currents were measured in myocytes according to the method of Clemo & Baumgarten (1997). Briefly, electrodes were pulled from glass capillaries to give a final tip diameter of […] and a resistance of 0.5–1 MW when filled with the standard electrode filling solution (K aspartate 120 mM, KCl 10 mM, NaCl 10 mM, MgSO4 3 mM, Hepes 10 mM, pH 7.1). Whole cell currents were recorded using an Axoclamp 200A. Pulse and ramp protocols, voltage clamp data acquisition and off-line data analysis were controlled with software written in ASYST. Both step and ramp voltage clamp protocols were applied with a holding potential of −80 mV. Currents were digitized at 1 KHz and low-pass filtered at 200 Hz. Whole cell currents were recorded using the amphotericin perforated patch technique. Solution changes were performed by bath perfusion that was completed within 10 s. The standard bath solution contained (NaCl 65 mM, KCl 5 mM, CaSO4 2.5 mM, MgSO4 0.5 mM, glucose 10 mM and Hepes 10 mM pH 7.2, and 130 mM (IT) or 283 mM (1.5 T) mannitol to control the osmolarity. Isotonic osmolarity was taken as 296 mosm (IT) and 444 mosm for hypertonic solution (1.5 T).
The myocytes were exposed to 1.0 T and 1.5 T solution in the absence (1.0 TC, 1.5 TC) and presence (1.0 TTX, 1.5 TTX) of 0.4 μM GsMTx-4. […] However, whole cell current was unaffected by GsMTx-4 when swelling-activated currents were inactivated by 1.5 T hypertonic saline (FIG. 9Bd). […] The remaining inward current is largely. ICI,swell. […]

ventricular myocytes = experiment: Myocyte volume by video microscopy in CHF rabbit ventricular myocytes; type: cell-based; conditions: 0.4 μM
Description: Myocyte volume was determined by visualization with an inverted Nikon Diaphot microscope equipped with Hoffman modulation optics and a high resolution TV camera coupled to a video frame-grabber. Images were captured on-line each time a ramp or step voltage clamp protocol was performed using a program written in C and assembler and linked to ASYST voltage-clamp software. A combination of commercial (MOCHA; SPSS) and custom (ASYST) programs were used to determine cell width, length, and area of the image. GsMTx-4 produced a cell volume reduction that is ˜40% of that produced by 1.5 T […] saline.

perfused rabbit hearts = experiment: Stretch-induced atrial fibrillation in perfused rabbit hearts
Source text: To illustrate this embodiment, fibrillation was initiated in perfused rabbit hearts with a burst of high-frequency stimulation FIG. 10A. Stretching the atrium chamber increased the incidence and duration of fibrillation (FIG. 10A–C). At pressures above 12 cm H2O, the fibrillation became sustained and the probability of sustained fibrillation (for, longer than 60 s) approached unity. The probability of inducing fibrillation was increased by stimulating the heart with a short burst of high-frequency pacing before each measurement (arrow in FIG. 10b). Perfusion with 170 nM GsMtx-4 suppressed both the incidence (FIG. 10c) and duration (FIG. 10d) of fibrillation in all hearts (n=10).

**Q.** “GCLEFWWKCNPNDDKCCRPKLKCSKLFKLCNFSFGK [GsMTx-4]” was tested. Which “change in reversal potential of swelling-activated current” value ([1]; 5 μM GsMTx-4) did it give?
**A.** +2 mV

**Q.** And the “effect on whole-cell currents in isotonic saline” value ([1]; 5 μM GsMTx-4, 30 to 120 s after perfusion)?
**A.** no significant difference

**Q.** What about the “reduction of peak swelling-activated current response” value ([1]; 5 μM, 30 seconds after hypotonic exposure) of the same sequence?
**A.** about 75%

**Q.** What about the “estimated reduction in swelling-activated current” value ([1]; 5 μM, at +100 mV) of the same sequence?
**A.** ~38%

**Q.** What about the “estimated reduction in swelling-activated current” value ([1]; 5 μM, at −100 mV) of the same sequence?
**A.** ~48%

**Q.** And the “effect on inward ICir,swell” value ([2]; 1.0 T)?
**A.** significant reduction

**Q.** And the “effect on outward ICI,swell” value ([2]; 1.0 T)?
**A.** no effect

**Q.** And the “effect on whole cell current when swelling-activated currents inactivated” value ([2]; 1.5 T hypertonic saline)?
**A.** unaffected

**Q.** And the “cell volume reduction relative to that produced by 1.5 T saline” value (ventricular myocytes)?
**A.** ~40%

**Q.** What about the duration of fibrillation (perfused rabbit hearts; 170 nM perfusion) of the same sequence?
**A.** decreased the average time to spontaneous recovery from AF; also recorded: suppressed

**Q.** And the incidence of fibrillation (perfused rabbit hearts; 170 nM perfusion, n=10 hearts)?
**A.** suppressed

**Q.** What about the “stretch-induced shortening of the refractory period” value (perfused rabbit hearts; 170 nM, n=10) of the same sequence?
**A.** did not block

**Q.** What about the sustained fibrillation (perfused rabbit hearts; 170 nM, pressures below 17.5 cm H2O) of the same sequence?
**A.** completely inhibited

— patent US7125847B1, “Mechanically activated channel blocker” (priority 2000, dated 2006)
